Test results from US8247399B2, “Photoactive metal nitrosyls for blood pressure regulation and cancer therapy” (The Regents of the University of California, priority 2004, dated 2012).

How the values were obtained:
[1] = Photorelease (photodissociation) of NO from the metal nitrosyl in solution under illumination; type: physicochemical; details: for type of light that releases NO: in DMF, UV-cut filters
Description: FIG. 7(A) provides a plot of KNO values versus light power. Increase in A550 of a solution of [(PaPy3)Fe(NO)](ClO4)2 in MeCN upon illumination with a 60 W tungsten lamp (Patra et al., Inorg Chem, 42:6812-6823, 2003), KNO (×10^3 s^−1)=5.60±0.014.
FIG. 8(C) provides a plot of the electronic absorption spectrum of [(bpb)Ru(NO)(Cl)] (broken line) and [(Me2bqb)Ru(NO)(Cl)] (solid line) in DMF. Both nitrosyls are photolabile.
(§1) Dashed line: met-Mb; dash-dot line: reduced Mb; dotted line: a mixture of [(PaPy3)Ru(NO)](BF4)2 and reduced Mb (1.5:1) under ordinary light (20 min); solid line: same mixture exposed to UV (30 s). […] Dash-dot line: oxidized and dash line: reduced enzyme; dotted line: reduced enzyme plus [(PaPy3)Ru(NO)](BF4)2 under ordinary light (20 min); solid line: same mixture exposed to UV light for 30 s (Patra and Mascharak, Inorg Chem, 42:7363-7365, 2003, herein incorporated by reference).
As described herein, nitrosyls like [Fe(PaPy3)(NO)](CIO4)2 and [Mn(PaPy3)(NO)](BF4)2 are converted into the corresponding solvato species [M(PaPy3)(solv)]^2+ following NO loss. Clean isosbestic points in the multiple trace spectra (e.g., FIG. 6B and FIG. 6C) indicate that the [M(PaPy3)(NO)]^2+→[M(PaPy3)(solv)]^2+ transformation is likely devoid of other intermediates. […] Preliminary actinometric measurements have afforded a quantum yield of 0.12 for the light reaction of [Ru(PaPy3)(NO)](BF4)2 in water. Collectively, these properties indicate that the nitrosyl complexes disclosed herein are good light-induced NO donors.
The light characteristics of any one of these metal nitrosyls can be changed (tuned) with minor alterations in the ligand frames such as changing a donor atom or ring size. This is a tremendous advantage of the present approach, thereby freeing users of this technology from the light requirements of photoactive nitrosyls of the prior art, which hereto have been found serendipitously. […] (BF4)2 releases NO only under UV light (λ<350 nm).

[2] = test system: rat aortic smooth muscle cells; test: cGMP generation in cultured rat aortic smooth muscle cells; type: cell-based
Procedure: Primary rat aortic smooth muscle cells were cultured and exposed to increasing log doses of Ru—NO with and without a 5 minute exposure to low-intensity UV light (λmax=254 nm) followed by a 10 minute incubation. The cells were then lysed and the cGMP production was assayed Cyclic GMP accumulation was measured using a commercially available ELISA kit (Amersham Biosciences) as per the manufacturer instructions.

rat aortic rings = test: Relaxation of rat thoracic aorta rings precontracted with phenylephrine; details: for concentration at which relaxation effect is shown: Ru-drug under UV light, DEA/NO control drug
Procedure: Male rats (200-250 g; Sprague-Dawley) were stunned and killed by cervical dislocation. The thoracic aortas were carefully removed, cleaned of connective tissue and cut into 3-4 ring segments of approximately 4 mm in length. Aortic rings were mounted in 10 mL organ baths containing Krebs-bicarbonate buffer (composition (mM): Na^+ 143; K^+ 5.9; Ca^2+ 2.5; Mg^2+ 1.2; Cl^− 128; HCO3^− 25; HPO4^2− 1.2; SO4^2− 1.2; D-glucose 11) maintained at 37° C. and gassed with 95% O2/5% CO2. Tension was initially set at 1 g and reset at intervals following an equilibrium period of 1 hour during which time fresh Krebs-bicarbonate buffer was replaced every 15-20 minutes. After equilibrium, the rings were primed with KCl (4.8×10^−2 M) before a supramaximal concentration of phenylephrine (PE; 10^−6 M) was added. Once this response had stabilized, acetylcholine (ACH; 10^−6M) was added to the bath to assess the integrity of endothelium of WT vessels. If the contractions to PE were not maintained, or relaxations greater than 50% of the PE-induced tone to ACH were not observed, the tissues were discarded.
Tissues were then washed for 30 minutes (by addition of fresh Krebs-bicarbonate buffer at 15 minutes intervals) after which cumulative concentrations of PE (10^−9-10^−6 M) were added to the organ bath. The tissues were then washed over 60 minutes to restore basal tone before contracting to approximately 80% of the maximum PE-induced response. Once a stable response to PE was achieved, cumulative concentration-response curves to the NO-donors were constructed in the presence and absence of light ([…]) and the soluble […] ODQ ([…]).

reduced Mb = test: Light-triggered NO transfer to reduced myoglobin; type: biochemical; details: aqueous solution, low intensity UV light 30 s, nitrosyl:Mb 1.5:1
Procedure: as §1
(§2) When this process is repeated in presence of reduced Mb, the 434 nm Soret band of reduced Mb is rapidly changed to 420 nm indicating formation of the Mb-NO adduct (FIG. 9B). Clearly [Ru(PaPy3)(H2O)](BF4)2 acts as an efficient NO donor that is activated by light. Similar results have been obtained with cytochrome c oxidase. Exposure of a mixture of [Ru(PaPy3)(H2O)](BF4)2 and reduced cytochrome c oxidase to UV light rapidly generated the NO adduct (Soret band at 428 nm, FIG. 9C). […] Other compounds according to the disclosure herein are known to, or are predicted to, have similar results with regard to being able to facilitate NO transfer to Mb and Hb.

reduced cyt c oxidase = test: Light-triggered NO transfer to reduced cytochrome c oxidase; type: biochemical; details: low intensity UV light 30 s
Procedure: as §1, §2

papain = molecular target: T1, papain (Carica papaya, UniProt P00784); test: Papain inhibition under light (l-BApNA substrate); type: biochemical; details: 3 mM nitrosyl 1 mL + papain 3 mg/mL 1 mL, 50 W tungsten lamp 3 min, 25° C., pH 6.2
T1 sequence (P00784 134-345): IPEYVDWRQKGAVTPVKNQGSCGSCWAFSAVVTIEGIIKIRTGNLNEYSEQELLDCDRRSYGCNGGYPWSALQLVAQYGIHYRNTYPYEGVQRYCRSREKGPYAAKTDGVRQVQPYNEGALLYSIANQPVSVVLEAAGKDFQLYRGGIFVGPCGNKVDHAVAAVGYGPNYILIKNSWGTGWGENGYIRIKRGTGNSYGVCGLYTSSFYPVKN
Procedure: Twice-crystallized papain was activated by stirring the enzyme in 50 mM phosphate buffer (pH 6.2) containing 10 mM dithiothreitol (DTT) for 24 h. The solution was then passed through a Pharmacia 20 mL desalting column equipped with a BioRad FPLC absorbance/electrical-conducting detector at 4° C. The activated protein (devoid of DTT) eluted from the column in 2 minutes at a flow rate of 2 mL/min, and was subsequently lyophilized and stored at −20° C.
Papain activity was determined spectrophotometrically at 410 nm by monitoring the formation of p-nitroaniline from the substrate Nα-Benzoyl-l-arginine-p-nitroanilide (l-BApNA). A 1.5 mM stock solution of l-BApNA was prepared in 50 mM phosphate buffer (pH 6.2, 1 mM EDTA, 0.1 M NaCl) and stored at room temperature. A 4.6 μM stock solution of active papain was also prepared in 50 mM phosphate buffer (pH 6.2, 1 mM EDTA, 0.1 M NaCl) and stored at 0° C. Finally, a freshly prepared 3.0 mM stock solution of 1 was prepared in 50 mM phosphate buffer (pH 6.2, 1 mM EDTA, 0.1 M NaCl) and stored in the dark.
[…] The mixture was then exposed to a 50 W tungsten bulb (Afshar at al., Inorg Chem, 43:5736-5743, 2004) for 60 s and 350 μL of the substrate was quickly added. The residual enzyme activity was monitored at 25° C. […] After each exposure, 350 μL of the substrate was added to the solution and the residual enzyme activity was monitored at 25° C. […]

## [(bpb)Ru(NO)(Cl)]
[1]
  type of light that releases NO: releases NO upon illumination with UV light

## [(PaPy3)Fe(NO)](ClO4)2
[1]
  wavelength of light under which NO is released: ~500 nm
[1]; in MeCN, 60 W tungsten lamp
  KNO (rate of NO loss): 5.60±0.014 ×10^3 s^−1

## [(PaPy3)Ru(NO)](BF4)2
[1]
  wavelength of light under which NO is released: < 350 nm
[1]; in water, preliminary actinometric measurements
  quantum yield of the light reaction: 0.12
[2]; 0.1 mM, low-intensity UV light (λmax=254 nm) 5 min
  increase in cGMP production: 13 fold
[2]; dark
  increase in cGMP concentration in the dark: not observed in the dark
Rat aortic rings
  light dependence of relaxation effect: only under exposure to light
  concentration at which relaxation effect is shown: 10 µM
Rat aortic rings; UV light
  relaxation compared with conventional NO donor: comparable to that observed upon treatment of the tissue with a conventional NO donor (DEA/NO)
Rat aortic rings; light turned off
  contraction of tissue when the light was turned off: ~25%
Reduced Mb
  formation of Mb-NO adduct: conversion of reduced Mb to Mb-NO
Reduced cyt c oxidase
  formation of cyt c oxidase NO-adduct: conversion of reduced cyt c oxidase to its NO-adduct

## CCN(CC)/[N+]([O-])=N/[O-].[Na+] [DEA/NO, reference compound]
Rat aortic rings
  concentration at which relaxation effect is shown: 0.01 µM

## [(Me2bqb)Ru(NO)(Cl)]
[1]
  type of light that releases NO: releases NO upon illumination with visible light

## [(PaPy3)Mn(NO)]ClO4
papain
  papain enzymatic activity after exposure: completely eliminating the enzymatic activity
